# According to ChEMBL document CHEMBL5352386 (Eur J Med Chem, 2022):
# Calls of active or inactive are those of the source. The calls are words filed in the database; no cut-off is given here.
# Columns and labels:
# [1] = Acute toxicity in overnight fasted male ICR mouse assessed as animal death at 1 g/Kg, IG administered as single dose measured upto 15 days; details: in vivo, po, 1000 mg/kg, 360 h, time < 15 day
# [2] = Acute toxicity in overnight fasted male ICR mouse assessed as abnormal behavior at 1 g/Kg, IG administered as single dose measured upto 15 days; details: in vivo, po, 1000 mg/kg, 360 h, time < 15 day
# Cholinesterase [3] = target: T1, Cholinesterase (Homo sapiens, UniProt P06276); assay: Binding affinity to human BChE assessed as dissociation constant by Surface Plasmon Resonance assay
# [4] = Metabolic stability in human liver microsomes assessed as parent compound remaining at 1 uM incubated upto 50 mins in presence of NADPH by LC/MS/MS analysis; assay type: ADME, Microsome; details: read-out: Stability
# Mus musculus [5] = assay: Neuroprotective activity against Abeta42 induced cognition impairement in AD mouse model assessed as reduction in latency time to platform at 10 mg/kg, po measured after 14 days by Morris water maze analysis; assay type: functional, organism-based; details: time 14.0 day
# SH-SY5Y [6] = assay: Neuroprotective activity against Abeta1-42 induced toxicity in human SH-SY5Y cells at 1 to 5 uM preincubated for 1 hr with compound followed by co-incubation with Abeta1-42 and measured after 24 hrs by MTT assay; assay type: functional, cell-based; details: dose 1-5 µM, time 25.0 hrs
# PC-12 [7] = assay: Cytoprotective activity against H2O2 induced cell damage in rat PC12 cells at 10 to 20 uM preincubated for 1 hr with compound followed by co-incubation with H2O2 and measured after 24 hrs by MTT assay; assay type: functional, cell-based; details: dose 10-20 µM, time 25.0 hrs
# SH-SY5Y [8] = assay: Induction of antioxidant effect in human SH-SY5Y cells assessed as prevention of Abeta1-42 induced ROS production preincubated for 1 hr with compound followed by Abeta1-42 stimulation and measured after 24 hrs by DCFH-DA staining based inverted fluorescence microscopy analysis; assay type: functional, cell-based; details: time 25.0 hrs
# Cholinesterase [9] = target: T1, Cholinesterase; assay: Inhibition of human BuChE using butyrylthiocholine iodide as substrate incubated for 10 mins followed by substrate addition by DTNB-reagent based Ellman's colorimetric assay
# [10] = Acute toxicity in overnight fasted female ICR mouse assessed as animal death at 1 g/Kg, IG administered as single dose measured upto 15 days; details: in vivo, po, 1000 mg/kg, 360 h, time < 15 day
# SH-SY5Y [11] = assay: Neuroprotective activity against glutamate induced toxicity in human SH-SY5Y cells assessed as effect on cell survival rate at 10 to 20 uM preincubated for 1 hr with compound followed by co-incubation with glutamate and measured after 24 hrs by MTT assay; assay type: functional, cell-based; details: dose 10-20 µM, time 25.0 hrs
# [12] = Acute toxicity in overnight fasted female ICR mouse assessed as body weight loss at 1 g/Kg, IG administered as single dose measured upto 15 days; details: in vivo, po, 1000 mg/kg, 360 h, time < 15 day
# SH-SY5Y [13] = assay: Cytotoxicity against human SH-SY5Y cells assessed as inhibition of cell growth measured after 24 hrs by MTT assay; assay type: functional, cell-based
# [14] = Cytotoxicity against mouse BV-2 cells assessed as inhibition of cell growth measured after 24 hrs by MTT assay; assay type: toxicity, cell-based
# Mus musculus [15] = assay: Neuroprotective activity against Abeta42 induced cognition impairement in AD mouse model assessed as reduction in confusion of escape trajectory at 10 mg/kg, po measured after 14 days; assay type: functional, organism-based; details: time 14.0 day
# L02 = assay: Cytotoxicity against human L02 cells assessed as survival rate at 100 uM measured after 24 hrs by MTT assay relative to control; assay type: functional; details: read-out: Survival
# PC-12 [16] = assay: Cytotoxicity against rat PC12 cells assessed as survival rate at 100 uM measured after 24 hrs by MTT assay relative to control; details: PC-12, 24 h, read-out: Survival
# [17] = Metabolic stability in human liver microsomes assessed as half life at 1 uM incubated upto 50 mins in presence of NADPH by LC/MS/MS analysis; assay type: ADME, Microsome
# Cholinesterase [18] = target: Cholinesterase (Equus caballus, UniProt P81908); assay: Inhibition of equine serum BuChE using butyrylthiocholine iodide as substrate incubated for 10 mins followed by substrate addition by DTNB-reagent based Ellman's colorimetric assay
# BV-2 = assay: Induction of antioxidant effect in mouse BV-2 cells assessed as prevention of LPS-induced ROS production preincubated for 1 hr with compound followed by LPS stimulation and measured after 24 hrs by DCFH-DA staining based inverted fluorescence microscopy analysis; assay type: functional, cell-based; details: time 25.0 hrs
# SH-SY5Y [19] = assay: Neuroprotective activity against glutamate induced toxicity in human SH-SY5Y cells at low concentration preincubated for 1 hr with compound followed by co-incubation with glutamate and measured after 24 hrs by MTT assay; assay type: functional, cell-based; details: time 25.0 hrs
# [20] = Acute toxicity in overnight fasted female ICR mouse assessed as abnormal behavior at 1 g/Kg, IG administered as single dose measured upto 15 days; details: in vivo, po, 1000 mg/kg, 360 h, time < 15 day
# [21] = Acute toxicity in overnight fasted male ICR mouse assessed as body weight loss at 1 g/Kg, IG administered as single dose measured upto 15 days; details: in vivo, po, 1000 mg/kg, 360 h, time < 15 day
# [22] = Half life in Sprague-Dawley rat at 10 mg/kg, iv measured upto 1440 mins by LC/MS/MS analysis; assay type: ADME, organism-based; details: in vivo
# [23] = MRT infinity in Sprague-Dawley rat at 10 mg/kg, iv measured upto 1440 mins by LC/MS/MS analysis; assay type: ADME, organism-based; details: in vivo
# [24] = Ratio of drug exposure in plasma to brain in ICR mouse measured after 60 mins by LC/MS/MS analysis; assay type: ADME, cell-free; details: in vivo, 1 h
# [25] = MRT infinity in Sprague-Dawley rat at 10 mg/kg, po measured upto 1440 mins by LC/MS/MS analysis; assay type: ADME, organism-based; details: in vivo
# [26] = Cmax in ICR mouse brain administered as oral dose by LC/MS/MS analysis; assay type: ADME, tissue-based; set-up: route po
# [27] = Cmax in ICR mouse plasma administered as oral dose by LC/MS/MS analysis; assay type: ADME; set-up: route po
# [28] = Cmax in Sprague-Dawley rat at 10 mg/kg, iv measured upto 1440 mins by LC/MS/MS analysis; assay type: ADME, organism-based; set-up: dose 10 mg/kg, time < 1440 min, route iv; details: Sprague-Dawley, in vivo, read-out: Cmax
# [29] = Ratio of drug exposure in plasma to brain in ICR mouse measured after 30 mins by LC/MS/MS analysis; assay type: ADME, cell-free; details: in vivo, 0.5 h
# [30] = Ratio of drug exposure in plasma to brain in ICR mouse measured after 120 mins by LC/MS/MS analysis; assay type: ADME, cell-free; details: in vivo, 2 h
# [31] = Oral bioavailability in Sprague-Dawley rat at 10 mg/kg measured upto 1440 mins by LC/MS/MS analysis; assay type: ADME, organism-based; details: in vivo
# Mus musculus [32] = assay: Neuroprotective activity against Abeta42 induced cognition impairement in AD ICR mouse model assessed as increase in ghrelin level in mouse brain administered as oral dose for 21 days; assay type: functional, organism-based; details: time 21.0 day
# Mus musculus [33] = assay: Neuroprotective activity against Abeta42 induced cognition impairement in AD ICR mouse model assessed as increase in body weight at 10 mg/kg measured after 21 days; assay type: functional, organism-based; details: time 21.0 day
# [34] = AUC (0 to t) in ICR mouse plasma administered as oral dose by LC/MS/MS analysis; assay type: ADME; set-up: route po
# [35] = Tmax in Sprague-Dawley rat at 10 mg/kg, po measured upto 1440 mins by LC/MS/MS analysis; assay type: ADME, organism-based; details: in vivo
# [36] = AUC (0 to infinity) in Sprague-Dawley rat at 10 mg/kg, iv measured upto 1440 mins by LC/MS/MS analysis; assay type: ADME, organism-based; set-up: dose 10 mg/kg, time < 1440 min, route iv; details: Sprague-Dawley, in vivo
# [37] = Ratio of Cmax in ICR mouse brain to Cmax in ICR mouse plasma; assay type: ADME, cell-free
# SH-SY5Y [38] = assay: Cytotoxicity against human SH-SY5Y cells assessed as survival rate at 100 uM measured after 24 hrs by MTT assay relative to control; assay type: functional; details: read-out: Survival
# [39] = Cmax in Sprague-Dawley rat at 10 mg/kg, po measured upto 1440 mins by LC/MS/MS analysis; assay type: ADME, organism-based; set-up: time < 1440 min, dose 10 mg/kg, route po; details: in vivo, 24 h
# [40] = Drug uptake in ICR mouse central nervous system; assay type: ADME, tissue-based; details: in vivo
# [41] = Half life in Sprague-Dawley rat at 10 mg/kg, po measured upto 1440 mins by LC/MS/MS analysis; assay type: ADME, organism-based; details: in vivo
# [42] = Ratio of AUCt in ICR mouse brain to AUCt in ICR mouse plasma; assay type: ADME, cell-free
# [43] = Ratio of drug exposure in plasma to brain in ICR mouse measured after 480 mins by LC/MS/MS analysis; assay type: ADME, cell-free; details: in vivo, 8 h
# [44] = AUC (0 to infinity) in Sprague-Dawley rat at 10 mg/kg, po measured upto 1440 mins by LC/MS/MS analysis; assay type: ADME, organism-based; set-up: dose 10 mg/kg, time < 1440 min, route po; details: in vivo
# [45] = Ratio of drug exposure in plasma to brain in ICR mouse measured after 20 mins by LC/MS/MS analysis; assay type: ADME, cell-free; details: in vivo
# [46] = AUC (0 to t) in Sprague-Dawley rat at 10 mg/kg, po measured upto 1440 mins by LC/MS/MS analysis; assay type: ADME, organism-based; set-up: time < 1440 min, dose 10 mg/kg, route po; details: in vivo
# [47] = AUC (0 to t) in ICR mouse brain administered as oral dose by LC/MS/MS analysis; assay type: ADME, tissue-based; set-up: route po
# [48] = AUC (0 to t) in Sprague-Dawley rat at 10 mg/kg, iv measured upto 1440 mins by LC/MS/MS analysis; assay type: ADME, organism-based; set-up: time < 1440 min, dose 10 mg/kg, route iv; details: Sprague-Dawley, in vivo
# [49] = Ratio of drug exposure in plasma to brain in ICR mouse measured after 240 by LC/MS/MS analysis; assay type: ADME, cell-free; details: in vivo, 4 h, time 240 min
# Mus musculus [50] = assay: Neuroprotective activity against Abeta42 induced cognition impairement in AD ICR mouse model assessed as increase in ghrelin level in mouse plasma administered as oral dose for 21 days; assay type: functional, organism-based; details: time 21.0 day
# [51] = Ratio of drug exposure in plasma to brain in ICR mouse measured after 10 mins by LC/MS/MS analysis; assay type: ADME, cell-free; details: in vivo
# T1 sequence (P06276 whole entry): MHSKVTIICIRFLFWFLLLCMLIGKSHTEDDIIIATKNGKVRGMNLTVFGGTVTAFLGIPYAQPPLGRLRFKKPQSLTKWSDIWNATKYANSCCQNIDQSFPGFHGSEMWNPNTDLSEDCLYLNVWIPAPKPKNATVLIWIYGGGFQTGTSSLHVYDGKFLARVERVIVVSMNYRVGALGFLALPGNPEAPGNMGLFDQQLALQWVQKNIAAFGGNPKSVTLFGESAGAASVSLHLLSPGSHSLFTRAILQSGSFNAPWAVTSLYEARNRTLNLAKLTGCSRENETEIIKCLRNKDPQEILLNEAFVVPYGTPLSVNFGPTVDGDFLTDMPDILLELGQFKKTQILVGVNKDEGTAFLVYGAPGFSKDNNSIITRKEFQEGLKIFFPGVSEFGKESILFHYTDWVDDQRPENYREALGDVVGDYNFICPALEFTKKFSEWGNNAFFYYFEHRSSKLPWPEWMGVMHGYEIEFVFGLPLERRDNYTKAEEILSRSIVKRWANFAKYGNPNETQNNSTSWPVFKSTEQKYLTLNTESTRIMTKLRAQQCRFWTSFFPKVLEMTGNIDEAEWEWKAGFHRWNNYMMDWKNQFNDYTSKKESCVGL
# Sequence of Cholinesterase (Equus caballus, UniProt P81908) (P81908 whole entry): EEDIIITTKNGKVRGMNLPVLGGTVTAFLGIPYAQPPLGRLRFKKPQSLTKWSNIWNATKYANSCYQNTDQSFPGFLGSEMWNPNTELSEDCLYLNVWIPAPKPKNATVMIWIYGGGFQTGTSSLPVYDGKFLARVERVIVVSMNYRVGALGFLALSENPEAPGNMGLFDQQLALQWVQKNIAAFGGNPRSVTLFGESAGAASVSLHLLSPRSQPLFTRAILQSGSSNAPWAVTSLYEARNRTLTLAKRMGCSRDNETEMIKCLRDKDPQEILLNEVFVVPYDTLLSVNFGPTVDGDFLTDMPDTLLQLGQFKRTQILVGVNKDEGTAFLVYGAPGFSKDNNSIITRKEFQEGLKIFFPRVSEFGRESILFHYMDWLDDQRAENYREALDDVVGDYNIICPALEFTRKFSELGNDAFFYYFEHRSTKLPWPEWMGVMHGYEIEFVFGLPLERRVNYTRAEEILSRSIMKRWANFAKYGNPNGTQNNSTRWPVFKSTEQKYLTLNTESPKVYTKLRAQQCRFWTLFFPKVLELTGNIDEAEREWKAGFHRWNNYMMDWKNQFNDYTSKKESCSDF
structure (smiles),measurement,setting,value
Nc1nonc1-c1nc2ccccc2n1CC(=O)Nc1cc([N+](=O)[O-])cc([N+](=O)[O-])c1,Activity,[1],Non-Toxic
same,Activity,[2],Non-Toxic
same,Kd,Cholinesterase [3],3.09 nM
same,Activity,Cholinesterase [3]; dose 0.3125-40 nM,Dose-Dependent Effect
same,"remaining at 50 min, 1 µM",[4],92.8%
same,Activity,Mus musculus [5],Active
same,Activity,SH-SY5Y [6],Active
same,Activity,PC-12 [7],Active
same,Activity,SH-SY5Y [8],Active
same,IC50,Cholinesterase [9],34.6 nM
same,Activity,[10],Non-Toxic
same,Activity,SH-SY5Y [11],Active
same,Activity,[12],Non-Toxic
same,IC50,SH-SY5Y [13],72300 nM
same,IC50 at 24 h,[14],19200 nM
same,Activity,Mus musculus [15],Active
same,viability at 100 µM,L02,52.4%
same,viability at 100 µM,PC-12 [16],50.8%
same,half-life at 1 µM,[17],11.5 h
same,IC50,Cholinesterase [18],2.94 nM
same,Activity,BV-2,Active
same,Activity,SH-SY5Y [19],Active
same,Activity,[20],Non-Toxic
same,Activity,[21],Non-Toxic
N#Cc1cc(Br)cc(NC(=O)Cn2c(-c3nonc3N)nc3ccccc32)c1,Activity,[1],Non-Toxic
same,half-life,[22],8.87 h
same,MRT inf,[23],14.1 h
same,Ratio,[24],0.27
same,MRT inf,[25],11.6 h
same,Cmax,[26],179 ng/mL
same,Activity,[2],Non-Toxic
same,Cmax,[27],1760 ng/mL
same,Cmax,[28],488 ng/mL
same,Ratio,[29],0.82
same,"remaining at 50 min, 1 µM",[4],89.7%
same,Activity,Mus musculus [5],Active
same,Ratio,[30],0.54
same,Activity,SH-SY5Y [6],Active
same,bioavailability,[31],73.4%
same,Activity,PC-12 [7],Active
same,Activity,SH-SY5Y [8],Active
same,IC50,Cholinesterase [9],45.2 nM
same,Activity,[10],Non-Toxic
same,Activity,SH-SY5Y [11],Active
same,Activity,[12],Non-Toxic
same,Activity,Mus musculus [32],Active
same,Activity,Mus musculus [33],Active
same,AUC(0-t),[34],1160 ng·h/mL
same,Tmax,[35],9.5 min
same,AUC(0-inf),[36],1090 ng·h/mL
same,Kp,[37],0.1
same,IC50 at 24 h,[14],27800 nM
same,Activity,Mus musculus [15],Active
same,viability at 100 µM,L02,72.4%
same,viability at 100 µM,PC-12 [16],54.6%
same,half-life at 1 µM,[17],5.75 h
same,IC50,Cholinesterase [18],0.15 nM
same,viability at 100 µM,SH-SY5Y [38],57.8%
same,Cmax,[39],44.73 ng/mL
same,Activity,BV-2,Active
same,Drug uptake,[40],Active
same,half-life,[41],5.47 h
same,Activity,SH-SY5Y [19],Active
same,Activity,[20],Non-Toxic
same,Kp,[42],0.31
same,Ratio,[43],0.88
same,AUC(0-inf),[44],662 ng·h/mL
same,Activity,[21],Non-Toxic
same,Ratio,[45],2.23
same,AUC(0-t) at 24 h,[46],628 ng·h/mL
same,AUC(0-t),[47],356 ng·h/mL
same,AUC(0-t) at 24 h,[48],860 ng·h/mL
same,Ratio,[49],0.27
same,Activity,Mus musculus [50],Active
same,Ratio,[51],13.33
